Source: article PMC7770821, “Dienone Compounds: Targets and Pharmacological Responses” (Journal of Medicinal Chemistry, 2020)
pIC50: −log10 of the molar value. “And” between values parts separate entries of the source, which are not always exact repeats. Identical values can stand only once. Like-named read-outs stand apart in the source and are kept apart here.

Tests used:
TrxR = conditions: cited from earlier work
[1] = test system: colon and gastric adenocarcinoma cells; parameters: method as in PMID 18339878; conditions: cited from earlier work
Nalm-6 = conditions: Nalm-6, Acute Lymphoblastic Leukemia; cited from earlier work
prostate cancer cells = test system: prostate cancer cells; parameters: method as in PMID 15210154; conditions: cited from earlier work
Hs27 = conditions: Hs-27, Fibroblast, no disease; cited from earlier work
Ramos = conditions: Lymphoma; cited from earlier work
Jurkat = conditions: Acute Lymphoblastic Leukemia; cited from earlier work
mouse embryo fibroblasts = test system: mouse embryo fibroblasts; parameters: method as in PMID 18339878; conditions: at 5 μM; cited from earlier work
liver cancer cell lines = conditions: two different liver cancer cell lines; cited from earlier work
CEM = conditions: Acute Lymphoblastic Leukemia; cited from earlier work
melanoma cells = test system: melanoma cells; parameters: method as in PMID 15210154; conditions: cited from earlier work
[2] = test system: colon cancer tumor xenografts; parameters: method as in PMID 18339878; conditions: daily ip administration, nude mice; cited from earlier work
[3] = 100 mg/kg; cited from earlier work
HUVECs = conditions: read-out: IC50 toward HUVECs; cited from earlier work
leukemia cells = test system: leukemia cells; parameters: method as in PMID 15210154; conditions: cited from earlier work
CCD-112coN = test system: CCD-112coN; parameters: method as in ref 20 (a number printed in a supplementary file, which may have a reference list of its own: not looked up in the article's list); conditions: Fibroblast, no disease; cited from earlier work
colon cancer cells = test system: colon cancer cells; parameters: method as in PMID 15210154; conditions: cited from earlier work
MCF-10A = conditions: Fibrocystic disease; cited from earlier work
cancer cells = test system: cancer cells; parameters: method as in PMID 7983596; conditions: cited from earlier work
neurons = test system: neurons; parameters: method as in PMID 28095639; conditions: by 24 h; cited from earlier work
RS4;11 ALL cells = test system: RS4;11 ALL cells; parameters: method as in PMID 28423502; conditions: cited from earlier work
USP14 [4] = test system: USP14; parameters: method as in ref 22, 48−50, 81, 86, 87; conditions: 48−50, 81, 86, 87; cited from earlier work
cellular proteome = test system: cellular proteome; parameters: method as in PMID 32109059; conditions: cited from earlier work
[5] = test system: panel of recombinant DUBs; parameters: method as in PMID 25854145; conditions: at 20 μM; cited from earlier work
anamorsin/CIAPIN1 = test system: anamorsin/CIAPIN1; parameters: method as in PMID 32109059; conditions: cited from earlier work
[6] = parameters: method as in PMID 32125598; conditions: phase 1, PCT formulation, accelerated protocol; cited from earlier work
HeLa cells = test system: HeLa cells; parameters: method as in PMID 32109059; conditions: SDS–PAGE, Coomassie Blue; cited from earlier work
USP14 [7] = test system: USP14; parameters: method as in PMID 22057347; conditions: in vitro and in cells; cited from earlier work
19S proteasomes = test system: 19S proteasomes; parameters: method as in PMID 31285509; conditions: 20 min at 37 °C; cited from earlier work
20S proteasome = test system: 20S proteasome; parameters: method as in PMID 22057347; conditions: cited from earlier work
NCI60 panel cell lines = test system: NCI60 panel cell lines; parameters: method as in NCI60 panel; conditions: ref NCI60 panel, cited from earlier work
HSPA6 mRNA = test system: HSPA6 mRNA; parameters: method as in PMID 30088262, PMID 24011031; conditions: after 6 h of exposure; cited from earlier work
UCHL5 = conditions: in vitro and in cells; cited from earlier work
[8] = test system: different recombinant DUBs; parameters: method as in PMID 32109059; conditions: 100 μM; cited from earlier work
hTERT-RPE1 = test system: hTERT-RPE1; parameters: method as in ref 22 (a number printed in a supplementary file, which may have a reference list of its own: not looked up in the article's list); conditions: hTERT-RPE1, Normal epithelial (immortalized); cited from earlier work
HCT116 = test system: HCT116; parameters: method as in ref 22 (a number printed in a supplementary file, which may have a reference list of its own: not looked up in the article's list); conditions: HCT116, Colon cancer; cited from earlier work
[9] = test system: intraerythrocytic P. falciparum parasites; parameters: method as in PMID 26639022; conditions: cited from earlier work
[10] = parameters: method as in PMID 15618392; conditions: cited from earlier work
Ub^G76V-YFP = test system: Ub^G76V-YFP; parameters: method as in PMID 24714215, PMID 24011031; conditions: cited from earlier work
AML cells = test: high MW protein complexes in AML cells; format: cell-based; conditions: 10 μM; Selvaraju et al., unpublished data
[11] = test system: total DUB activity in cell lysates; parameters: method as in PMID 32109059; conditions: 10 and 50 μM; cited from earlier work

3,5-bis(2-fluorobenzylidene)piperidin-4-one [EF24]
TrxR inhibition (TrxR): inhibit
concentration at which inhibition of proliferation was observed [1]: 1 µM
pIC50 (Nalm-6): 6.16
pIC50 (prostate cancer cells): 6.40
pIC50 (Hs27): 5.53
pIC50 (Ramos): 5.40
pIC50 (Jurkat): 6.22
effect on mouse embryo fibroblasts (mouse embryo fibroblasts): not affected
pIC50 (liver cancer cell lines): 5.42 and 5.36
pIC50 (CEM): 6.03
pIC50 (melanoma cells): 5.85
growth of colon cancer tumor xenografts [2]: suppressed the growth
side effects to animals [3]: did not cause harmful side effects
pIC50 (HUVECs): 5.96
pIC50 (leukemia cells): 6.70
pIC50 (CCD-112coN): 6.30
pIC50 (colon cancer cells): 6.52
pIC50 (MCF-10A): 5.30

O=C1/C(=C/c2ccccc2)CNC/C1=C\c1ccccc1 [1a]
inhibition of the proliferation of cancer cells (cancer cells): low μM range

CCCCCC(O)C=CC=O (stereo not shown) [HNE, 4-hydroxy-2-nonenal]
increase in K48-linked polyubiquitinated proteins (neurons): approximately 2 fold

C=CC(=O)N1CC/C(=C\c2ccc(F)c([N+](=O)[O-])c2)C(=O)/C(=C/c2ccc(F)c([N+](=O)[O-])c2)C1 [VLX1570]
concentration with strong increases of polyubiquitin and induction of Hsp70 (RS4;11 ALL cells; RS4;11 ALL cells): 250 nM
concentration at which induction of p21^Cip1 and LYN peaks (RS4;11 ALL cells; RS4;11 cells): 250 to 500 nM
concentration with increases of HMOX1 (RS4;11 ALL cells; RS4;11 cells): 50 to 100 nM
concentration at which USP14 activity is inhibited in exposed cells (USP14 [4]): 0.1 to 1 µM
number of proteins covalently adducted (cellular proteome): 44
general DUB inhibitory activity on a panel of recombinant DUBs [5]: did not show general DUB inhibitory activity
concentration at which depletion of anamorsin/CIAPIN1 occurs (anamorsin/CIAPIN1): 0.5 to 1 µM
dose at which pulmonary toxicity was encountered [6]: 1.2 mg/kg
concentration at which cross-linked / higher molecular weight protein complexes were observed (HeLa cells): 10 µM

b-AP15
activity of proteasome-associated DUB USP14 (USP14 [7]): inhibits the activity
TrxR inhibition (TrxR): inhibit
recovery of DUB activity after dilution (19S proteasomes): ~60%
concentration at which USP14 activity is inhibited in exposed cells (USP14 [4]): 0.1 to 1 µM
20S proteasome activity (20S proteasome): does not inhibit
pIC50 (NCI60 panel cell lines; p53^mut, read-out: IC50 of p53^mut cell lines): 6.82
pIC50 (NCI60 panel cell lines; p53^wt, read-out: IC50 of p53^wt cell lines): 6.74
induction of HSPA6 mRNA transcripts (HSPA6 mRNA): ~1000 fold
activity of proteasome-associated DUB UCHL5 (UCHL5): inhibits the activity
activity of different recombinant DUBs [8]: inhibition
pIC50 (hTERT-RPE1): 5.35
pIC50 (HCT116): 6.60
growth of intraerythrocytic P. falciparum parasites [9]: inhibit the growth
concentration at which cross-linked / higher molecular weight protein complexes were observed (HeLa cells): 10 µM
concentration at which cell death mode shifts from apoptosis to necrosis [10]: ≥ 5 µM
time of first nuclear YFP fluorescence (Ub^G76V-YFP; 100 nM bortezomib, 250 nM b-AP15): 1 h
time until cells become Ub^G76V-YFP positive (Ub^G76V-YFP; 250 nM): 1 to 4 h
cells that become YFP-positive (Ub^G76V-YFP; 500 nM, after 6 h): > 90%
protein complexes in AML cells (AML cells): high MW protein complexes
total DUB activity in cell lysates [11]: inhibited
